“Also recorded” adds a separate entry of the source. Marks after values point to notes of the source that are not given here.
Assays:
[1] = Crystal violet cytotoxicity assay; assay type: cell-based; conditions: mouse, Hepa1c1c7 murine hepatoma cells
[2] = system: NAD(P)H:quinone oxidoreductase 1 (NQO1); test: In vitro NQO1 induction assay in Hepa-1c1c7 cells; conditions: Hepa1c1c7 cells; for NQO1 assay CD ± SD (concentration required for two-fold induction of NQO1): pure compounds, 48 h
[3] = dry state, 24 h at room temperature, from 98.6% freshly isolated; cited from earlier work
[4] = p.o. dose 500 mg/kg, rats; cited from earlier work
[5] = system: antioxidant response element (ARE); test: ARE-luciferase activity assay in HepG2-ARE-C8 cells; assay type: cell-based; conditions: 24 h treatment
[6] = DPPH assay; assay type: biochemical; conditions: for DPPH % FRS ± SD: pure compounds at screening concentration of 100 μM
[7] = LC-MS-MS analysis of GSH conjugates; conditions: 1 mM GSH, pH 8.0, 1 h, room temperature
[8] = system: NAD(P)H:quinone oxidoreductase 1 (NQO1); conditions: cited from earlier work

SMILES	NQO1 inducing activity (in words) [2]	DPPH % FRS ± SD [6] [%]	NQO1 assay CD ± SD (concentration required for two-fold induction of NQO1) [2]	other results
CCC/C=C1\OC(=O)C2=C1CCC=C2 [Compound 1, Z-ligustilide]	respectable NQO1 inducing activities	< 50	–	IC50 at 48 h [1]: 71.2 ± 4.1 µM; purity (GC-MS) after degradation [3]: 58.1%; GSH conjugate in plasma [4]: a GSH conjugate with monooxygenated ligustilide (mass 206) could be detected in the plasma; ARE-luciferase reporter activity [5]: increased ARE-luciferase reporter activity in a dose-dependent manner; also recorded: induced ARE reporter luciferase activity in a dose-dependent manner; covalent modification of GSH / GSH conjugate formation [7]: covalently modified GSH; also recorded: formed GSH conjugates
CCC/C=C1\OC(=O)c2ccccc21 [Compound 2, Z-butylidenephthalide]	did not induce NQO1 activity	< 50	> 20 µM	IC50 at 48 h [1]: > 20 µM
CCC/C=C1\OC(=O)C2=C1CC[C@@H](O)[C@@H]2O [Compound 3, senkyunolide I]	weak NQO1 inducing properties	< 50	17.9 ± 0.6 µM	–
CCC/C=C1\OC(=O)C2=CC3CCC21[C@]1(OC(=O)c2ccccc21)[C@@H]3CCC (stereo partly shown) [Compound 4, ansaspirolide]	potent inducing properties	< 50	0.9 ± 0.1 µM	CI (Chemopreventive Index: IC50/CD) [2]: 3
CCC/C=C1\OC(=O)C23C=CCCC12C1(OC(=O)c2ccccc21)C3CCC (stereo not shown) [Compound 5, sinaspirolide]	did not show any NQO1 inducing activity	< 50	> 20 µM	–
COc1cc(/C=C/C(=O)OCC(O)C(OC)c2ccc(O)c(OC)c2)ccc1O (stereo not shown) [Compound 6, angeliferulate]	respectable NQO1 inducing activities; also recorded: high NQO1 inducing properties	–	7.5 ± 0.2 µM	–
COc1cc(/C=C/C(=O)OCCc2ccc(O)cc2)ccc1O [Compound 7, p-hydroxyphenethyl trans-ferulate]	respectable NQO1 inducing activities; also recorded: high NQO1 inducing properties	65 ± 1	2.4 ± 0.3 ^f μM	radical scavenging activity (in words) ([6]; DPPH): moderate radical scavenging activity
C[S+]([O-])CCCCN=C=S (stereo not shown) [sulforaphane]	–	–	–	CI (chemopreventive index) [8]: 26
